Experimental data reported in article PMC11506171, “Quercetin as a Modulator of PTPN22 Phosphomonoesterase Activity: A Biochemical and Computational Evaluation” (Current Issues in Molecular Biology, 2024).

Key:
Type in all cases: biochemical
[1] = target: T1, protein tyrosine phosphatase nonreceptor type 22 (PTPN22) (Homo sapiens, UniProt Q9Y2R2); test: pNPP phosphatase assay, single concentration screen at […]; settings: read-out: % inhibition at 50 μM
T1 construct: catalytic domain, amino acids 1 to 303
T1 sequence (Q9Y2R2 1-303): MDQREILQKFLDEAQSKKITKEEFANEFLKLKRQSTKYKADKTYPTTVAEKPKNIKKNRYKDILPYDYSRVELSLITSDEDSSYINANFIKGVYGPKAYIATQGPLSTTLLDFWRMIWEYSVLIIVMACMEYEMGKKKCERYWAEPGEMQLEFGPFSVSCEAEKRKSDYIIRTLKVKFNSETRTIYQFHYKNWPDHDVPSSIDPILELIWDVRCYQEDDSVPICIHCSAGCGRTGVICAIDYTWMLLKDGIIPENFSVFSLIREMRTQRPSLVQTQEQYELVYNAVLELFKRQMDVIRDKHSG

[2] = target: T1, protein tyrosine phosphatase nonreceptor type 22 (PTPN22); test: pNPP phosphatase assay with recombinant enzyme; Lineweaver-Burk and Dixon plots (Ki […])
[3] = target: T1, protein tyrosine phosphatase nonreceptor type 22 (PTPN22); test: pNPP phosphatase assay with recombinant enzyme, reference inhibitor

O=C1C=C(O)C(=O)c2ccccc21 [2HNQ]
inhibition at 50 µM [1]: 62%

O=C1C=CC(=O)c2c(O)cccc21 [5HNQ]
inhibition at 50 µM [1]: 61%

CO[C@H]1C[C@H](O[C@H]2[C@H](C)O[C@@H](O[C@@H]3/C(C)=C/C[C@@H]4C[C@@H](C[C@]5(C=C[C@H](C)[C@@H](C6CCCCC6)O5)O4)OC(=O)[C@@H]4C=C(C)[C@@H](O)[C@H]5OC/C(=C\C=C\[C@@H]3C)[C@]54O)C[C@@H]2OC)O[C@@H](C)[C@@H]1O [doramectin]
inhibition at 50 µM [1]: 50%

O=c1c(O)c(-c2ccc(O)c(O)c2)oc2cc(O)cc(O)c12 [quercetin]
IC50 [2]: 29.6 µM

CO[C@H]1C[C@H](O[C@@H]2/C(C)=C/C[C@@H]3C[C@@H](C[C@]4(CC[C@H](C)[C@@H](C5CCCCC5)O4)O3)OC(=O)[C@@H]3C=C(C)/C(=N/O)[C@H]4OC/C(=C\C=C\[C@@H]2C)[C@]43O)O[C@@H](C)[C@@H]1O [selamectin]
inhibition at 50 µM [1]: 54%

C[C@H]1[C@H](C)CC[C@]2(C(=O)O)CC[C@]3(C)C(=CC[C@@H]4[C@@]5(C)CC[C@H](O)C(C)(C)[C@@H]5CC[C@]43C)[C@H]12 [ursolic acid]
IC50 [3]: 37.2 µM
